The test system of the experiment is Mycosphaerella graminicola; Anamorph: Septoria tritici; Bayer Code SEPTTR. In words: Leaf blotch of wheat, foliar fungicide treatment, one day protectant (1DP) or three day curative (3DC). The class given is in vivo, Septoria tritici on wheat plants (variety Yuma). The following applies: Zymoseptoria tritici, rating of percent disease control.
Setting [1] is: 24 h, one day protectant (1DP), read-out: SETTTR 1DP 25 ppm.
The mark [2] stands for this setting: 24 h, one day protectant (1DP), read-out: SEPTTR 1DP 100 ppm.
The mark [3] stands for this setting: 72 h, three day curative (3DC), read-out: SEPTTR 3DC 25 ppm.
Setting [4] is: 72 h, three day curative (3DC), read-out: SEPTTR 3DC 100 ppm.

Structures are written as SMILES. Read-outs that look alike come from different tables or passages of the source.

As for `Nc1nc(OCc2cc(Cl)cc(C(F)(F)F)c2)ncc1F` [Compound 743], the pest or weed control at 25 ppm was 76 to 100% under setting [1] and 76 to 100% under setting [3]. For the same molecule, the pest or weed control at 100 ppm by setting is: under setting [2], 76 to 100%; under setting [4], 76 to 100%.

For the molecule `CC(C)/C(=N\c1nc(OCc2ccc(F)cc2)ncc1F)N(C)C` [Compound 744], the pest or weed control at 25 ppm reads like this: under setting [1], 76 to 100%; under setting [3], 76 to 100%. The pest or weed control at 100 ppm was 76 to 100% under setting [2] and 76 to 100% under setting [4].

In the case of `CC#CCOc1ncc(F)c(NC(C)=O)n1` [Compound 745], the pest or weed control at 25 ppm was 76 to 100% under setting [1] and 76 to 100% under setting [3]. In addition, the pest or weed control at 100 ppm lay within 76 to 100% under setting [2] and 76 to 100% under setting [4].

For `C#CCOc1ncc(F)c(N)n1` [Compound 746], the pest or weed control at 25 ppm by setting is: under setting [1], 0 to 25%; under setting [3], 0 to 25%. Moreover, the pest or weed control at 100 ppm is, setting by setting: under setting [2], 0 to 25%; under setting [4], 76 to 100%.

Regarding `CC1CC1COc1ncc(F)c(N)n1` (centres unmarked) [Compound 747], the pest or weed control at 25 ppm is 0 to 25% under setting [1] and 51 to 75% under setting [3]. In addition, the pest or weed control at 100 ppm lay in the range of 76 to 100% under setting [2] and 76 to 100% under setting [4].

As for `Nc1nc(OCCOc2ccccc2)ncc1F` [Compound 748], the pest or weed control at 25 ppm under setting [1] fell in the range of 0 to 25%. The pest or weed control at 100 ppm under setting [2] fell in the range of 0 to 25%.

For the molecule `CCOC(=O)Nc1nc(OC(C)c2ccc(F)cc2)ncc1F` (centres unmarked) [Compound 749], the pest or weed control at 25 ppm by setting is: under setting [1], 76 to 100%; under setting [3], 76 to 100%. The pest or weed control at 100 ppm lay within 76 to 100% under setting [2] and 76 to 100% under setting [4].

In the case of `Fc1ccccc1CNc1nc(OCc2ccccc2)ncc1F` [Compound 750], the pest or weed control at 25 ppm is, setting by setting: under setting [1], 26 to 50%; under setting [3], 26 to 50%. Besides, the pest or weed control at 100 ppm under setting [2] fell in the range of 76 to 100% and the pest or weed control at 100 ppm under setting [4] fell in the range of 51 to 75%.

`CN1CCCC/C1=N\c1nc(OCc2ccn(C)n2)ncc1F` [Compound 751]: the pest or weed control at 25 ppm under setting [1] was in the range of 51 to 75% and the pest or weed control at 25 ppm under setting [3] was 26 to 50%. The pest or weed control at 100 ppm by setting is: under setting [2], 76 to 100%; under setting [4], 76 to 100%.

For the molecule `CCOCCOc1cccc(COc2ncc(F)c(N)n2)c1` [Compound 752], the pest or weed control at 25 ppm by setting is: under setting [1], 76 to 100%; under setting [3], 76 to 100%. Besides, the pest or weed control at 100 ppm by setting is: under setting [2], 76 to 100%; under setting [4], 76 to 100%.

On to `CCOCNc1nc(OCc2ccccc2)ncc1F` [Compound 753], for which the pest or weed control at 25 ppm under setting [1] was in the range of 76 to 100% and the pest or weed control at 25 ppm under setting [3] lay in the range of 76 to 100%. Moreover, the pest or weed control at 100 ppm lay within 76 to 100% under setting [2] and 76 to 100% under setting [4].

For the molecule `COc1cccc(COc2ncc(F)c(NN3CCOCC3)n2)c1` [Compound 754], the pest or weed control at 25 ppm fell in the range of 0 to 25% under setting [1] and 0 to 25% under setting [3]. In addition, the pest or weed control at 100 ppm is, setting by setting: under setting [2], 0 to 25%; under setting [4], 26 to 50%.

As for `Cc1ccc(COc2ncc(F)c(N(N)C3CCCCC3)n2)cc1` [Compound 755], the pest or weed control at 25 ppm was 26 to 50% under setting [1] and 0 to 25% under setting [3]. Also, the pest or weed control at 100 ppm is, setting by setting: under setting [2], 26 to 50%; under setting [4], 0 to 25%.

Consider `Nc1nc(OCc2ccc(Br)cc2)ncc1F` [Compound 757], for which the pest or weed control at 25 ppm was 76 to 100% under setting [1] and 76 to 100% under setting [3]. Also, the pest or weed control at 100 ppm was 76 to 100% under setting [2] and 76 to 100% under setting [4].

In the case of `O=[N+]([O-])c1ccccc1SNc1nc(OCc2cccc(C(F)(F)F)c2F)ncc1F` [Compound 758], the pest or weed control at 25 ppm is 26 to 50% under setting [1] and 26 to 50% under setting [3]. Further, the pest or weed control at 100 ppm is 76 to 100% under setting [2] and 51 to 75% under setting [4].

In the case of `O=C(Nc1nc(OCc2cccs2)ncc1F)c1ccccc1` [Compound 759], the pest or weed control at 25 ppm runs as follows: under setting [1], 51 to 75%; under setting [3], 26 to 50%. The pest or weed control at 100 ppm under setting [2] fell in the range of 76 to 100% and the pest or weed control at 100 ppm under setting [4] was 76 to 100%.

Consider `CCCCCOC(=O)Nc1nc(OCc2cccc(F)c2)ncc1F` [Compound 762], for which the pest or weed control at 25 ppm under setting [1] is 76 to 100% and the pest or weed control at 25 ppm under setting [3] was 76 to 100%. Further, the pest or weed control at 100 ppm was 76 to 100% under setting [2] and 76 to 100% under setting [4].

Regarding `Nc1nc(OCc2cccnc2)ncc1F` [Compound 763], the pest or weed control at 25 ppm was in the range of 76 to 100% under setting [1] and 76 to 100% under setting [3]. In addition, the pest or weed control at 100 ppm is 76 to 100% under setting [2] and 76 to 100% under setting [4].

In the case of `CC(C)(C)OC(=O)NNc1nc(OCc2ccccc2)ncc1F` [Compound 765], the pest or weed control at 25 ppm is, setting by setting: under setting [1], 0 to 25%; under setting [3], 0 to 25%. Besides, the pest or weed control at 100 ppm was 26 to 50% under setting [2] and 0 to 25% under setting [4].

`Cc1ccc(COc2ncc(F)c(NNc3ccccc3)n2)cc1` [Compound 766]: the pest or weed control at 25 ppm runs as follows: under setting [1], 0 to 25%; under setting [3], 0 to 25%. Moreover, the pest or weed control at 100 ppm is, setting by setting: under setting [2], 51 to 75%; under setting [4], 26 to 50%.

Consider `COc1cccc(C(=O)Oc2ncc(F)c(/N=C/N(C)C)n2)c1` [Compound 767], for which the pest or weed control at 25 ppm reads like this: under setting [1], 76 to 100%; under setting [3], 76 to 100%. The pest or weed control at 100 ppm under setting [2] was 76 to 100% and the pest or weed control at 100 ppm under setting [4] lay within 76 to 100%.

On to `Nc1nc(OCCCc2ccncc2)ncc1F` [Compound 768], for which the pest or weed control at 25 ppm fell in the range of 0 to 25% under setting [1] and 0 to 25% under setting [3]. The pest or weed control at 100 ppm reads like this: under setting [2], 26 to 50%; under setting [4], 26 to 50%.

In the case of `COc1ccc(COc2ncc(F)c(NC(=S)Nc3ccccc3F)n2)cc1F` [Compound 769], the pest or weed control at 25 ppm under setting [1] fell in the range of 51 to 75% and the pest or weed control at 25 ppm under setting [3] lay within 0 to 25%. The pest or weed control at 100 ppm was 76 to 100% under setting [2] and 76 to 100% under setting [4].

For `COc1cccc(COc2ncc(F)c(NC(C)=S)n2)c1` [Compound 770], the pest or weed control at 25 ppm reads like this: under setting [1], 76 to 100%; under setting [3], 76 to 100%. The pest or weed control at 100 ppm was in the range of 76 to 100% under setting [2] and 76 to 100% under setting [4].

With `CC(Oc1ncc(F)c(NC(=O)OCc2ccccc2)n1)c1ccc(F)cc1` (centres unmarked) [Compound 771], the pest or weed control at 25 ppm under setting [1] lay within 76 to 100% and the pest or weed control at 25 ppm under setting [3] lay in the range of 76 to 100%. For the same molecule, the pest or weed control at 100 ppm under setting [2] was in the range of 76 to 100% and the pest or weed control at 100 ppm under setting [4] was in the range of 76 to 100%.

Take `Cc1nc(C)c(COc2ncc(F)c(N)n2)s1` [Compound 772]: the pest or weed control at 25 ppm by setting is: under setting [1], 76 to 100%; under setting [3], 76 to 100%. In addition, the pest or weed control at 100 ppm runs as follows: under setting [2], 76 to 100%; under setting [4], 76 to 100%.

In the case of `COc1cccc(COc2ncc(F)c(NC(=O)Cc3ccccc3)n2)c1` [Compound 773], the pest or weed control at 25 ppm runs as follows: under setting [1], 26 to 50%; under setting [3], 0 to 25%. The pest or weed control at 100 ppm by setting is: under setting [2], 76 to 100%; under setting [4], 0 to 25%.

Turning to `CCCCCCOc1ncc(F)c(NC(=O)Nc2ccsc2)n1` [Compound 774], the pest or weed control at 25 ppm is, setting by setting: under setting [1], 0 to 25%; under setting [3], 0 to 25%. Also, the pest or weed control at 100 ppm was 0 to 25% under setting [2] and 0 to 25% under setting [4].

As to `CC(C)(C)NNc1nc(OCc2ccc(F)cc2)ncc1F` [Compound 775], the pest or weed control at 25 ppm by setting is: under setting [1], 0 to 25%; under setting [3], 0 to 25%. Also, the pest or weed control at 100 ppm was in the range of 0 to 25% under setting [2] and 0 to 25% under setting [4].

On to `CCCNC(=O)Nc1nc(OCc2cccs2)ncc1F` [Compound 776], for which the pest or weed control at 25 ppm runs as follows: under setting [1], 0 to 25%; under setting [3], 0 to 25%. Also, the pest or weed control at 100 ppm runs as follows: under setting [2], 0 to 25%; under setting [4], 0 to 25%.

Regarding `Cc1ccc(COc2ncc(F)c(NC(=S)Nc3ccccc3F)n2)cc1` [Compound 778], the pest or weed control at 25 ppm lay in the range of 76 to 100% under setting [1] and 76 to 100% under setting [3]. The pest or weed control at 100 ppm by setting is: under setting [2], 76 to 100%; under setting [4], 76 to 100%.

On to `OCNc1nc(OCc2cccc(F)c2)ncc1F` [Compound 780], for which the pest or weed control at 25 ppm runs as follows: under setting [1], 76 to 100%; under setting [3], 76 to 100%. Also, the pest or weed control at 100 ppm under setting [2] was 76 to 100% and the pest or weed control at 100 ppm under setting [4] lay within 76 to 100%.

Consider `N#Cc1cccc(COc2ncc(F)c(NC(=S)Nc3ccccc3F)n2)c1` [Compound 781], for which the pest or weed control at 25 ppm reads like this: under setting [1], 0 to 25%; under setting [3], 0 to 25%. In addition, the pest or weed control at 100 ppm reads like this: under setting [2], 51 to 75%; under setting [4], 26 to 50%.

Take `CCOC(=O)COC(=O)Nc1nc(OCc2cccc(C#N)c2)ncc1F` [Compound 782]: the pest or weed control at 25 ppm is, setting by setting: under setting [1], 0 to 25%; under setting [3], 26 to 50%. Also, the pest or weed control at 100 ppm reads like this: under setting [2], 26 to 50%; under setting [4], 76 to 100%.

Regarding `CC(C)Oc1ccc(COc2ncc(F)c(N)n2)cc1` [Compound 783], the pest or weed control at 25 ppm runs as follows: under setting [1], 76 to 100%; under setting [3], 76 to 100%. Besides, the pest or weed control at 100 ppm fell in the range of 76 to 100% under setting [2] and 76 to 100% under setting [4].

For `CNc1nc(OCc2ccc(F)cc2)ncc1F` [Compound 784], the pest or weed control at 25 ppm lay in the range of 0 to 25% under setting [1] and 0 to 25% under setting [3]. The pest or weed control at 100 ppm by setting is: under setting [2], 0 to 25%; under setting [4], 0 to 25%.

`COc1cc(F)cc(F)c1COc1ncc(F)c(N)n1` [Compound 787]: the pest or weed control at 25 ppm runs as follows: under setting [1], 76 to 100%; under setting [3], 76 to 100%. The pest or weed control at 100 ppm by setting is: under setting [2], 76 to 100%; under setting [4], 76 to 100%.

Values taken from US9204653B2, “5-fluoro pyrimidine derivatives” (DOW AGROSCIENCES LLC, priority 2008, dated 2015).
